pIC50: −log10 of the molar value. Like-named read-outs stand apart in the source and are kept apart here.
Tests used:
in vitro = conditions: human, Caco-2, pH 7.4
How it was run: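 Compounds at 10 μM in HBSS pH 7.4 (0.1–0.3% DMSO) were dosed on Caco-2 monolayers, apical-to-basolateral and basolateral-to-apical, for 90 min at 37 °C, in duplicate. Monolayer integrity was checked by TEER and lucifer yellow flux, read by fluorescence at 485/535 nm. Compound was quantified by LC-MS/MS and Papp calculated.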

[1] = Fraction of drug unbound to plasma proteins, mouse; type: in vitro ADME; conditions: Mouse plasma proteins (Table 10); read-out: Fu (p) %
[2] = target: CXCR-4 transfected U87 cell line (U87.CXCR4) (Homo sapiens (Human), UniProt P61073); experiment: Intracellular CXCL-12-induced calcium mobilization assay (FLIPR); type: cell-based; conditions: U87.CXCR4 cells, CXCL-12 25-50 ng/mL; read-out: IC50 CXCL-12 Ca2+ flux U87.CXCR4+
How it was run: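 U87.CXCR4 cells were seeded at 20,000 per well, cultured 12 hours, then loaded with 4 μM Fluo-2 AM for 45 min at 37° C. in HBSS with 20 mM HEPES and 0.2% BSA, pH 7.4. Calcium flux triggered by CXCL-12 (25-50 ng/mL) was tracked over time by FLIPR fluorescence at 37° C.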

[3] = target: Jurkat cells expressing CXCR4 (Homo sapiens (Human), UniProt P61073); experiment: Chemokine (CXCL12-AF647) binding inhibition assay; conditions: CXCL12-AF647 25 ng/mL, read-out: IC50 CXCL-12 binding Jurkat
How it was run: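 Cells in HBSS, 20 mM HEPES, 0.2% BSA, pH 7.4, preincubated 15 min at room temperature with compound, then 25 ng/mL CXCL12-AF647 for 30 min. After washing and paraformaldehyde fixation, bound ligand read by flow cytometry; percent inhibition calculated from MFI relative to unlabeled and ligand-only controls.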

[4] = Mouse brain uptake assay, 0-24 h, 4 time points; type: in vivo; conditions: male, 3 mg/kg IV, 4 time points; for Kp / Kp uu: CD1, brain and plasma; for Kp / Kp uu / clearance / half-life: Mouse; for clearance / half-life: CD1, plasma; for half-life: read-out: t½ (converted)
Experimental: The study design (9 animals) consisted of administrating the drug (IV: 3 mg/kg (5 mL/kg) via tail vein injection) and collecting samples at terminal bleeding for plasma and brain at 0.083, 0.5 and 1 h. The blood collection was performed as follows: the animal was restrained manually and approximately 150 μL blood/time point was collected into a dipotassium EDTA tube via retro orbital puncture under anesthesia with isoflurane. The blood sample was put on ice and centrifuged to obtain a plasma sample (2000 g, 5 min under 4° C.) within 15 minutes. The brain collection was performed as follows: a mid-line incision was made in the animal's scalp and the skin was retracted. Using small bone cutters and rongeurs, the skull overlying the brain was removed. The brain was removed using a spatula and the brain rinsed with cold saline. The brain was placed in screw-top tubes, and the tubes were stored at −70° C. until analysis. The IV dosing solution was prepared in 50 mM citrate buffer (pH 4.0) at 0.6 mg/mL.
An aliquot of 30 μL sample was added to 150 μL MeCN containing 50 ng/mL IS (Dexamethasone). The mixture was vortexed for 5 min and centrifuged at 14,000 rpm for 5 min. An aliquot of 5 μL supernatant was injected for LC-MS/MS analysis.
An aliquot of 30 μL brain homogenate (brain:PBS=1:3, w/v) sample was added to 150 μL IS in ACN (Dexamethasone, 50 ng/mL). The mixture was vortexed for 5 min and centrifuged at 14,000 rpm for 5 min. An aliquot of 5 μL supernatant was injected for LC-MS/MS analysis.
The sample analysis was performed on LCMS/MS-003 (API4000, triple quadruple) under the following conditions: positive ion, ESI, MRM detection using dexamethasone as internal standard. HPLC conditions: mobile phase A: H2O (0.025% formic acid (FA) with 1 mM NH4OAc); mobile phase B: MeOH (0.025% FA with 1 mM NH4OAc) on Waters X-Bridge C18 (2.1×50 mm, 2.5 μm) column at 60° C.
A similar experiment was performed with 4 time points taken from 0-24 h.

[5] = Fraction of drug unbound to brain proteins, mouse; type: in vitro ADME; conditions: Mouse brain proteins (Table 10); read-out: Fu (b) %
[6] = CD1, Mouse brain, read-out: AUClast (b)
[7] = CD1, Mouse plasma, read-out: AUClast (p)

Sequence of CXCR-4 transfected U87 cell line (U87.CXCR4) (P61073 whole entry): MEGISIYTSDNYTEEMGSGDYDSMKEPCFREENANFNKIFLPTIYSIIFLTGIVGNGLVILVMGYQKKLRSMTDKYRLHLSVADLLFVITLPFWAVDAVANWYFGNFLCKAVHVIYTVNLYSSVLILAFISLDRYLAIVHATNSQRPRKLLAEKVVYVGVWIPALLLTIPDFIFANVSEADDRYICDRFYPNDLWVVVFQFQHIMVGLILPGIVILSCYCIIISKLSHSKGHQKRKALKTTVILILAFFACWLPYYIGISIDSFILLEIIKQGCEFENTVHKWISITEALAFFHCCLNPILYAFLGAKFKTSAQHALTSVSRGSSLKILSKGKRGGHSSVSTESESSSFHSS
Sequence of Jurkat cells expressing CXCR4 (P61073 whole entry): as above

SMILES | Papp A→B at 90 min, 10 μM (in vitro) [×10⁻⁶ cm/s] | Papp B→A at 90 min, 10 μM (in vitro) [×10⁻⁶ cm/s] | efflux ratio at 90 min, 10 μM (in vitro) | fraction unbound [1] | pIC50 [2] | pIC50 [3] | AUC(0-t) [4, 6] [ng·h/mL] | AUC(0-t) [4, 7] [ng·h/mL] | Kp [4] | Kp uu [4] | clearance [4] [mL/min/kg] | half-life [4] [h] | fraction unbound [5]
CCOCc1c([C@H]2CCC[C@@H](c3ncccc3Cl)N2C)nc2cccc(N3CCN(C)CC3)n12 [Compound I-117] | 10 to 30 | 10 to 30 | 0.1 to 10 | 0.039 | 7.00 to 11.00 | 7.00 to 11.00 | 32300 | 1480 | 21.8 | 3.35 | 33.5 | 3.56 | 0.006
CN1CCN(c2cccc3nc([C@H]4CCC[C@@H](c5ncccc5Cl)N4C)c(Cl)n23)CC1 [Compound I-115] | 0.1 to 10 | 0.1 to 10 | 0.1 to 10 | 0.026 | 7.00 to 11.00 | 7.00 to 11.00 | 26900 | 1400 | 19.2 | 3.68 | 35.3 | 3.96 | 0.005
CCN1[C@@H](c2nc3cccc(N4CCN(C)CC4)n3c2Br)CCC[C@H]1c1ncccc1C [Compound I-46] | 0.1 to 10 | 0.1 to 10 | 0.1 to 10 | – | 7.00 to 11.00 | 7.00 to 11.00 | – | – | – | – | – | – | –
CO[C@@H](c1c([C@H]2CCC[C@@H](c3ncccc3C)N2C)nc2ccccn12)C1CCN(C)CC1 [Compound I-105] | 0.1 to 10 | 10 to 30 | > 30 | – | ≤ 6.00 | 6.00 to 7.00 | – | – | – | – | – | – | –
Cc1cccnc1[C@@H]1CCC[C@H](c2cn3c(N4CCN(C)C(=O)C4)cccc3n2)N1 [Compound I-210] | 0.1 to 10 | 10 to 30 | > 30 | – | ≤ 6.00 | ≤ 6.00 | – | – | – | – | – | – | –
Cc1cccnc1[C@@H]1CCC[C@H](c2nc3cccc(N4CCN(C)CC4)n3c2Br)N1C [Compound I-17] | 0.1 to 10 | 0.1 to 10 | 0.1 to 10 | – | 7.00 to 11.00 | 7.00 to 11.00 | – | – | – | – | – | – | –
Cc1cccnc1[C@@H]1CCC[C@H](c2nc3cccc(N4CCN(C)CC4)n3c2Cl)N1C(C)C [Compound I-127] | 0.1 to 10 | 0.1 to 10 | 0.1 to 10 | – | 7.00 to 11.00 | 7.00 to 11.00 | – | – | – | – | – | – | –
Cc1cccnc1[C@@H]1CCC[C@H](c2cn3ccccc3n2)N1Cc1ccccc1-n1cccn1 [Compound I-16] | 10 to 30 | 10 to 30 | 0.1 to 10 | – | 7.00 to 11.00 | 7.00 to 11.00 | – | – | – | – | – | – | –
CC[C@@H](O)c1c([C@H]2CCC[C@@H](c3ncccc3C)N2C)nc2cccc(N3CCN(C)CC3)n12 [Compound I-139] | 0.1 to 10 | > 30 | > 30 | – | 6.00 to 7.00 | 7.00 to 11.00 | – | – | – | – | – | – | –
Cc1cccnc1[C@@H]1CCC[C@H](c2nc3cccc(N4CCN(C)CC4)n3c2Br)N1C(C)C [Compound I-47] | 0.1 to 10 | 0.1 to 10 | 0.1 to 10 | – | 7.00 to 11.00 | 7.00 to 11.00 | – | – | – | – | – | – | –
Cc1cccnc1[C@@H]1CCC[C@H](c2nc3cccc(N4CCN(C)CC4)n3c2C)N1C [Compound I-86] | 0.1 to 10 | 10 to 30 | 10 to 30 | – | 7.00 to 11.00 | 7.00 to 11.00 | – | – | – | – | – | – | –
Cc1cccnc1[C@@H]1CCC[C@H](c2cn3c(N4C5CCC4CN(C)C5)cccc3n2)N1C [Compound I-69] | 0.1 to 10 | 10 to 30 | 0.1 to 10 | – | 7.00 to 11.00 | 7.00 to 11.00 | – | – | – | – | – | – | –
CN(C)C1CCN(c2cccc3nc([C@H]4CCC[C@@H](c5ncccc5Cl)N4C)c(Cl)n23)CC1 [Compound I-132] | 0.1 to 10 | 0.1 to 10 | 0.1 to 10 | – | 6.00 to 7.00 | 7.00 to 11.00 | – | – | – | – | – | – | –
CN(C)C1CCN(c2cccc3nc([C@H]4CCC[C@@H](c5ncccc5Cl)N4C)c(CO)n23)CC1 [Compound I-136] | 0.1 to 10 | 10 to 30 | 10 to 30 | – | 7.00 to 11.00 | 7.00 to 11.00 | – | – | – | – | – | – | –
CCOCc1c([C@H]2CCC[C@@H](c3ncccc3C)N2C)nc2cccc(N3CCN(C)CC3)n12 [Compound I-21] | 0.1 to 10 | 10 to 30 | 0.1 to 10 | – | 7.00 to 11.00 | 7.00 to 11.00 | – | – | – | – | – | – | –
Cc1cccnc1[C@@H]1CCC[C@H](c2nc3ccccn3c2COC2CCN(C)CC2)N1C [Compound I-62] | 0.1 to 10 | 10 to 30 | > 30 | – | ≤ 6.00 | 6.00 to 7.00 | – | – | – | – | – | – | –
Cc1cccnc1[C@@H]1CCC[C@H](c2cn3ccccc3n2)N1CCc1cnccn1 [Compound I-9] | 10 to 30 | 10 to 30 | 0.1 to 10 | – | 7.00 to 11.00 | 7.00 to 11.00 | – | – | – | – | – | – | –
Cc1cccnc1[C@H]1CCC[C@@H](c2nc3ccccn3c2CCCN2CCN(C)CC2)N1C (stereo in doubt) [Compound I-25] | 0.1 to 10 | 10 to 30 | > 30 | – | 7.00 to 11.00 | 7.00 to 11.00 | – | – | – | – | – | – | –
CN1CC2CCC(C1)N2c1cccc2nc([C@H]3CCC[C@@H](c4ncccc4Cl)N3C)c(CO)n12 [Compound I-134] | 10 to 30 | 10 to 30 | 0.1 to 10 | – | 7.00 to 11.00 | 7.00 to 11.00 | – | – | – | – | – | – | –
Cc1cccnc1[C@@H]1CCC[C@H](c2nc3cccc(N4CCN(C(C)C)CC4)n3c2CO)N1C [Compound I-50] | 0.1 to 10 | 10 to 30 | 10 to 30 | – | 7.00 to 11.00 | 7.00 to 11.00 | – | – | – | – | – | – | –
C#Cc1c([C@H]2CCC[C@@H](c3ncccc3C)N2C)nc2cccc(N3CCN(C)CC3)n12 [Compound I-89] | 0.1 to 10 | 0.1 to 10 | 0.1 to 10 | – | 7.00 to 11.00 | 7.00 to 11.00 | – | – | – | – | – | – | –
Cc1cccnc1[C@@H]1CCC[C@H](c2cn3c(N4CCN(C5CC5)CC4)cccc3n2)N1C [Compound I-66] | 10 to 30 | 10 to 30 | 0.1 to 10 | – | 6.00 to 7.00 | 7.00 to 11.00 | – | – | – | – | – | – | –
CN(C)C1CCN(c2cccc3nc([C@H]4CCC[C@@H](c5ncccc5Cl)N4C)cn23)CC1 [Compound I-142] | 0.1 to 10 | 10 to 30 | 0.1 to 10 | – | 7.00 to 11.00 | 7.00 to 11.00 | – | – | – | – | – | – | –
CCN1[C@@H](c2cn3c(N4CCN(C(C)C)CC4)cccc3n2)CCC[C@H]1c1ncccc1C [Compound I-37] | 0.1 to 10 | 10 to 30 | 0.1 to 10 | – | 7.00 to 11.00 | 7.00 to 11.00 | – | – | – | – | – | – | –
C/C=C/c1c([C@H]2CCC[C@@H](c3ncccc3C)N2C)nc2cccc(N3CCN(C)CC3)n12 [Compound I-141] | 0.1 to 10 | 10 to 30 | 0.1 to 10 | – | 6.00 to 7.00 | 7.00 to 11.00 | – | – | – | – | – | – | –

— patent US10759796B2, “CXCR4 inhibitors and uses thereof” (X4 Pharmaceuticals, Inc., priority 2016, dated 2020)
